Measured values: patent publication US9725459B2, “3-oxo-tetrahydro-furo[3,2-B]pyrrol-4(5H)-yl) derivatives I” (GRÜNENTHAL GMBH, priority 2014, dated 2017)
Like-named read-outs stand apart in the source and are kept apart here.

How the values were obtained:
Type in all cases: biochemical
human cathepsin S (CatS) = human cathepsin S (CatS) (Homo sapiens (Human), UniProt P25774); assay: CatS functional enzyme assay; settings: for Selectivity Ki(hCatS)/Ki(hCatK): ratio Ki(hCatS)/Ki(hCatK); for Ki: read-out: hCatS, Ki
Description: Reference and test compounds were assayed for inhibitory potency (IC50) against human cathepsins using the following assay setups: Recombinant human cathepsins (CatS, CatK, CatL) were purchased from a Enzo Life Sciences. […] For CatS, the enzyme (0.0007 mU/well) was incubated with fluorogeninc substrate (Z-VVR-AMC, 5 μM) at RT for 10 min. For CatK the enzyme (0.00175 mU/well) was incubated with fluorogeninc substrate (Z-FR-AMC, 40 μM) at RT for 10 min. For CatL, the enzyme (0.000874 mU/well) was incubated with fluorogeninc substrate (Z-VVR-AMC, 40 μM) at RT for 10 min. Flourogenic substrate turnover was detected using a microplate reader (Synergy™ H4, BioTek). Ki values were calculated using the Cheng Prusoff equation (Cheng & Prosoff 1973).

human cathepsin K (CatK) = human cathepsin K (CatK) (Homo sapiens (Human), UniProt P43235); assay: CatK functional enzyme assay; settings: recombinant human CatK, substrate Z-FR-AMC 40 μM, pH 5.5; Ki by Cheng Prusoff equation; read-out: hCatK, Ki
Description: (§1) Reference and test compounds were assayed for inhibitory potency (IC50) against human cathepsins using the following assay setups:
(§2) Recombinant human cathepsins (CatS, CatK, CatL) were purchased from a Enzo Life Sciences. All assays were carried out in 96-well format using a buffer of 50 mM KH2PO4, 50 mM NaCl, 2 mM EDTA, 0.5 mM DTT and 1% Triton-X-100, pH 6.5 for Cathepsin S and a buffer of 50 mM NaOAc, 10 mM EDTA, 1 mM DTT and 0.01% Triton-X-100, pH 5.5 for CatK/L/B. For CatS, the enzyme (0.0007 mU/well) was incubated with fluorogeninc substrate (Z-VVR-AMC, 5 μM) at RT for 10 min. For CatK the enzyme (0.00175 mU/well) was incubated with fluorogeninc substrate (Z-FR-AMC, 40 μM) at RT for 10 min. For CatL, the enzyme (0.000874 mU/well) was incubated with fluorogeninc substrate (Z-VVR-AMC, 40 μM) at RT for 10 min. Flourogenic substrate turnover was detected using a microplate reader (Synergy™ H4, BioTek). Ki values were calculated using the Cheng Prusoff equation (Cheng & Prosoff 1973).

human cathepsin L (CatL) = human cathepsin L (CatL) (Homo sapiens (Human), UniProt P07711); assay: CatL functional enzyme assay; settings: read-out: hCatL, inhibition [%] at 31.6 μM
Description: as §1, §2

[1] = recombinant human CatS, substrate Z-VVR-AMC 5 μM, pH 6.5, Ki by Cheng Prusoff equation

human cathepsin K (CatK), sequence (P43235 115-329): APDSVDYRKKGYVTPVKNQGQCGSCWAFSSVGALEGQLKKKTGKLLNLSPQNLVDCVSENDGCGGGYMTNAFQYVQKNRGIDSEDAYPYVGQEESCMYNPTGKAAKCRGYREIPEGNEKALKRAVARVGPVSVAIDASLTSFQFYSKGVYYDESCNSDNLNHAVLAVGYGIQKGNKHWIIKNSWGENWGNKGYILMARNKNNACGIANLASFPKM
human cathepsin L (CatL), sequence (P07711 114-333): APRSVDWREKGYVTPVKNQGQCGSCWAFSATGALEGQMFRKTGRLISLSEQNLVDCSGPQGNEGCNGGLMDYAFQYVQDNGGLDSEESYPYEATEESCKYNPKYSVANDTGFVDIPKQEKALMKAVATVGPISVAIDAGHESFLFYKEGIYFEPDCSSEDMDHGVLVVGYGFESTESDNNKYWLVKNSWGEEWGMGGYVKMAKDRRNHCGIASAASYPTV
human cathepsin S (CatS), sequence (P25774 115-331): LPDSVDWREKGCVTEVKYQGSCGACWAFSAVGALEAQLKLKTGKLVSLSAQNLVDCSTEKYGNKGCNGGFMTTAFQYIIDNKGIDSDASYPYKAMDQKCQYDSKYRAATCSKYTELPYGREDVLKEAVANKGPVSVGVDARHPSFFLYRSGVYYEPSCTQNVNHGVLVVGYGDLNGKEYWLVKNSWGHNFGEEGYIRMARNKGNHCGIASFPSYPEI

| Compound | Selectivity Ki(hCatS)/Ki(hCatK) (human cathepsin S (CatS)) | Ki (human cathepsin S (CatS); [1]) | Ki (human cathepsin K (CatK)) | inhibition at 31.6 µM (human cathepsin L (CatL)) | Ki (human cathepsin S (CatS)) | inhibition at 10 µM (human cathepsin S (CatS); read-out: hCatS, inhibition [%] at 10 μM) |
| --- | --- | --- | --- | --- | --- | --- |
| Cc1cc(-c2cnc(C(=O)N[C@H](C(=O)N3C[C@H](Cl)[C@H]4OCC(=O)[C@H]43)C3CCCCC3)s2)cn[n+]1[O-] [Example 77, 4-(2-(((S)-2-((3aS,6S,6aS)-6-chloro-3-oxotetrahydro-2H-furo[3,2-b]pyrrol-4(5H)-yl)-1-cyclohexyl-2-oxoethyl)carbamoyl)thiazol-5-yl)-6-methylpyridazine 1-oxide] | 1.3 | 25 nM | 20 nM | 12% |  |  |
| Cc1cc(-c2cnc(C(=O)N[C@H](C(=O)N3C[C@H](Cl)[C@H]4OCC(=O)[C@H]43)C3CCCCC3)s2)cnn1 [Example 75, N-((S)-2-((3aS,6S,6aS)-6-chloro-3-oxotetrahydro-2H-furo[3,2-b]pyrrol-4(5H)-yl)-1-cyclohexyl-2-oxoethyl)-5-(6-methylpyridazin-4-yl)thiazole-2-carboxamide] | 1.2 | 21 nM | 18 nM | 28% |  |  |
| O=C(N[C@H](C(=O)N1C[C@H](Cl)[C@H]2OCC(=O)[C@H]21)C1CCCCC1)c1ncc(-c2cncc(F)c2)s1 [Example 47, N-((S)-2-((3aS,6S,6aS)-6-chloro-3-oxotetrahydro-2H-furo[3,2-b]pyrrol-4(5H)-yl)-1-cyclohexyl-2-oxoethyl)-5-(5-fluoropyridin-3-yl)thiazole-2-carboxamide] | 11.1 | 221 nM | 20 nM | 28% |  |  |
| Cc1ncc(-c2ccc(C(=O)N[C@H](C(=O)N3C[C@H](Cl)[C@H]4OCC(=O)[C@H]43)C3CCCCC3)s2)c(C)n1 [Example 81, N-((S)-2-((3aS,6S,6aS)-6-chloro-3-oxotetrahydro-2H-furo[3,2-b]pyrrol-4(5H)-yl)-1-cyclohexyl-2-oxoethyl)-5-(2,4-dimethylpyrimidin-5-yl)thiophene-2-carboxamide] | 12.1 | 133 nM | 11 nM | 18% |  |  |
| O=C(N[C@H](C(=O)N1C[C@H](Cl)[C@H]2OCC(=O)[C@H]21)C1CCCCC1)c1cnc(-c2cccnc2)s1 [Example 13, N-((S)-2-((3aS,6S,6aS)-6-chloro-3-oxotetrahydro-2H-furo[3,2-b]pyrrol-4(5H)-yl)-1-cyclohexyl-2-oxoethyl)-2-(pyridin-3-yl)thiazole-5-carboxamide] |  |  | 29 nM | 16% |  | 73% |
| Cc1ncccc1-c1ccc(C(=O)N[C@H](C(=O)N2C[C@H](Cl)[C@H]3OCC(=O)[C@H]32)C2CCCCC2)s1 [Example 83, N-((S)-2-((3aS,6S,6aS)-6-chloro-3-oxotetrahydro-2H-furo[3,2-b]pyrrol-4(5H)-yl)-1-cyclohexyl-2-oxoethyl)-5-(2-methylpyridin-3-yl)thiophene-2-carboxamide] | 44.0 | 296 nM | 7 nM | 1% |  |  |
| O=C(N[C@H](C(=O)N1C[C@H](Cl)[C@H]2OCC(=O)[C@H]21)C1CCCCC1)c1sc(-c2cncnc2)cc1F [Example 53, N-((S)-2-((3aS,6S,6aS)-6-chloro-3-oxotetrahydro-2H-furo[3,2-b]pyrrol-4(5H)-yl)-1-cyclohexyl-2-oxoethyl)-3-fluoro-5-(pyrimidin-5-yl)thiophene-2-carboxamide] | 8.9 | 302 nM | 34 nM | 40% |  |  |
| CCc1cc(-c2cnc(C(=O)N[C@H](C(=O)N3C[C@H](Cl)[C@H]4OCC(=O)[C@H]43)C3CCCCC3)s2)ccn1 [Example 87, N-((S)-2-((3aS,6S,6aS)-6-chloro-3-oxotetrahydro-2H-furo[3,2-b]pyrrol-4(5H)-yl)-1-cyclohexyl-2-oxoethyl)-5-(2-ethylpyridin-4-yl)thiazole-2-carboxamide] | 16.2 | 59 nM | 4 nM | 14% |  |  |
| O=C(N[C@H](C(=O)N1C[C@H](Cl)[C@H]2OCC(=O)[C@H]21)C1CCCCC1)c1ccc(-c2cnccn2)s1 [Example 4, N-((S)-2-((3aS,6S,6aS)-6-chloro-3-oxotetrahydro-2H-furo[3,2-b]pyrrol-4(5H)-yl)-1-cyclohexyl-2-oxoethyl)-5-(pyrazin-2-yl)thiophene-2-carboxamide] | 13.1 |  | 14 nM | 17% | 184 nM |  |
| O=C(N[C@H](C(=O)N1C[C@H](Cl)[C@H]2OCC(=O)[C@H]21)C1CCCCC1)c1ncc(-c2cccnn2)s1 [Example 15, N-((S)-2-((3aS,6S,6aS)-6-chloro-3-oxotetrahydro-2H-furo[3,2-b]pyrrol-4(5H)-yl)-1-cyclohexyl-2-oxoethyl)-5-(pyridazin-3-yl)thiazole-2-carboxamide] | 7.7 | 193 nM | 25 nM | 12% |  |  |

Further lines, with some results ahead:

| Selectivity Ki(hCatS)/Ki(hCatK) (human cathepsin S (CatS)) | Ki (human cathepsin S (CatS); [1]) | Ki (human cathepsin K (CatK)) | inhibition at 31.6 µM (human cathepsin L (CatL)) | Compound | Ki (human cathepsin S (CatS)) | inhibition at 10 µM (human cathepsin S (CatS); read-out: hCatS, inhibition [%] at 10 μM) |
| --- | --- | --- | --- | --- | --- | --- |
| 10.0 | 580 nM | 58 nM | 25% | O=C(N[C@H](C(=O)N1C[C@H](Cl)[C@H]2OCC(=O)[C@H]21)C1CCCCC1)c1ccc(-c2ccc(C(F)(F)F)nc2)s1 [Example 62, N-((S)-2-((3aS,6S,6aS)-6-chloro-3-oxotetrahydro-2H-furo[3,2-b]pyrrol-4(5H)-yl)-1-cyclohexyl-2-oxoethyl)-5-(6-(trifluoromethyl)pyridin-3-yl)thiophene-2-carboxamide] |  |  |
| 23.0 |  | 5 nM | 10% | O=C(N[C@H](C(=O)N1C[C@H](Cl)[C@H]2OCC(=O)[C@H]21)C1CCCCC1)c1ccc(-c2cccnc2)s1 [Example 2, N-((S)-2-((3aS,6S,6aS)-6-chloro-3-oxotetrahydro-2H-furo[3,2-b]pyrrol-4(5H)-yl)-1-cyclohexyl-2-oxoethyl)-5-(pyridin-3-yl)thiophene-2-carboxamide] | 115 nM |  |
| 5.0 | 34 nM | 7 nM | 3% | O=C(N[C@H](C(=O)N1C[C@H](Cl)[C@H]2OCC(=O)[C@H]21)C1CCCCC1)c1ccc(-c2ccnc(C3CC3)c2)s1 [Example 66, N-((S)-2-((3aS,6S,6aS)-6-chloro-3-oxotetrahydro-2H-furo[3,2-b]pyrrol-4(5H)-yl)-1-cyclohexyl-2-oxoethyl)-5-(2-cyclopropylpyridin-4-yl)thiophene-2-carboxamide] |  |  |
| 0.7 | 13 nM | 18 nM | 12% | Cc1cc(-c2ccc(C(=O)N[C@H](C(=O)N3C[C@H](Cl)[C@H]4OCC(=O)[C@H]43)C3CCCCC3)s2)c(C)nn1 [Example 89, N-((S)-2-((3aS,6S,6aS)-6-chloro-3-oxotetrahydro-2H-furo[3,2-b]pyrrol-4(5H)-yl)-1-cyclohexyl-2-oxoethyl)-5-(3,6-dimethylpyridazin-4-yl)thiophene-2-carboxamide] |  |  |
| 21.3 | 616 nM | 29 nM | 5% | O=C(N[C@H](C(=O)N1C[C@H](Cl)[C@H]2OCC(=O)[C@H]21)C1CCCCC1)c1ncc(-c2ccc(C3CC3)nc2)s1 [Example 64, N-((S)-2-((3aS,6S,6aS)-6-chloro-3-oxotetrahydro-2H-furo[3,2-b]pyrrol-4(5H)-yl)-1-cyclohexyl-2-oxoethyl)-5-(6-cyclopropylpyridin-3-yl)thiazole-2-carboxamide] |  |  |
| 45.9 | 413 nM | 9 nM | 6% | O=C(N[C@H](C(=O)N1C[C@H](Cl)[C@H]2OCC(=O)[C@H]21)C1CCCCC1)c1ncc(-c2ccccn2)s1 [Example 46, N-((S)-2-((3aS,6S,6aS)-6-chloro-3-oxotetrahydro-2H-furo[3,2-b]pyrrol-4(5H)-yl)-1-cyclohexyl-2-oxoethyl)-5-(pyridin-2-yl)thiazole-2-carboxamide] |  |  |
